pIC50: −log10 of the molar value. Activity calls are given as the source filed them. No rule for the calls is given here.

In general, IC50 refers to the point on the concentration scale where inhibition reaches its midpoint. Usually pIC50 stands for −log10 of the IC50, conventionally taken in molar units.

The assay concerns ADSC/ECFC co-culture, VEGF-stimulated, CD31 tube area. The assay can be described thus: inhibition of endothelial tube formation, dose response, imaging, VEGF stimulation, CD31 staining, tube area, IC50 (AID 1117337).
For the molecule `O=C1OC(OC(=O)c2cccnc2Nc2cccc(C(F)(F)F)c2)c2ccccc21` (configuration not stated), the IC50 was > 10 µM (inactive). For the molecule `CN1CCN(C2Cc3ccccc3Sc3ccc(Cl)cc32)CC1` (configuration not stated), the IC50 is 5.23 µM (inactive). Consider `CCCCCCCCCCCCNCCNCCNCC(=O)O`, for which the IC50 is 6.04 µM (inactive). `Cc1cc(OI)c(C(C)C)cc1-c1cc(C(C)C)c(OI)cc1C`: the IC50 was > 10 µM (inactive).

In the case of `CCCCCCCCCCCCCCCCCCOP(=O)([O-])OC1CC[N+](C)(C)CC1`, the IC50 was > 10 µM (inactive). `CC(=O)c1ccc(OCC(=O)N2CCCCC2)cc1`: the IC50 was > 10 µM (inactive).

Consider `CCOC(=O)C=C(C)C=CC[C@@H](C)CCCC(C)C`, for which the IC50 was > 10 µM (inactive). Consider `Cc1ccc(C(=O)Oc2ccc(C(O)CNC(C)(C)C)cc2OC(=O)c2ccc(C)cc2)cc1` (configuration not stated), for which the IC50 was > 10 µM (inactive). As to `O=C(Nc1ccc(Br)cc1)c1cc(Br)cc(Br)c1O`, the pIC50 was 5.74. For `CN(C)CCCN1c2ccccc2Sc2ccc(Cl)cc21`, the IC50 was > 10 µM (inactive). For `O=C1c2c(O)ccc(O)c2C(=O)c2c(NCCNCCO)ccc(NCCNCCO)c21`, the pIC50 was 8.36. Take `Cc1cc(C(C#N)c2ccc(Cl)cc2)c(Cl)cc1NC(=O)c1cc(I)cc(I)c1O` (configuration not stated): the IC50 was > 10 µM (inactive).

Consider `CCOC(=O)C1=C(C)NC(C)=C(C(=O)OCC)C1c1ccccc1/C=C/C(=O)OC(C)(C)C`, for which the IC50 was > 10 µM (inactive). Still for that read-out and setting: then `O=C1CC(c2ccc(Cl)cc2)CC(=O)N1`, with > 10 µM (inactive). For `CCCCCCNC(=O)n1cc(F)c(=O)[nH]c1=O`, the pIC50 was 5.35.

With `CC(C)OC(=O)OCOP(=O)(CO[C@H](C)Cn1cnc2c(N)ncnc21)OCOC(=O)OC(C)C`, the negative logarithm of the IC50 (pIC50) is 5.42. `OCCN1CCN(CCCN2c3ccccc3Sc3ccc(C(F)(F)F)cc32)CC1`: the IC50 is > 10 µM (inactive). As for `CCC1C(=O)OCC1Cc1cncn1C` (configuration not stated), the IC50 was > 10 µM (inactive).

As to `CCCCCCCCCCCC(=O)[O][Sn]([CH2]CCC)([CH2]CCC)[O]C(=O)CCCCCCCCCCC`, the pIC50 is 5.70. Regarding `CC(=O)NC(=O)c1ccccc1O`, the IC50 was > 10 µM (inactive). Same read-out and setting: the same measure for `Cc1ccccc1C(=O)Nc1ccc(C(=O)N2CCCC(N(C)C)c3ccccc32)cc1` (configuration not stated): > 10 µM (inactive); for `Cc1nc2ccccc2n1Cc1ccc(Cl)cc1`: 7.38 µM (inactive).

Turning to `CCCCCN=C(N)N/N=C/c1c[nH]c2ccc(OC)cc12`, the pIC50 is 5.50. On to `COCCOC(=O)C1=C(C)NC(C)=C(C(=O)OC/C=C/c2ccccc2)C1c1cccc([N+](=O)[O-])c1` (configuration not stated), for which the IC50 is 6.42 µM (inactive). Regarding `CC(=O)O[C@H]1C[C@H](O[C@H]2[C@@H](O)C[C@H](O[C@@H]3[C@@H](O)C[C@H](O[C@H]4CC[C@@]5(C)[C@H](CC[C@@H]6[C@H]5C[C@@H](O)[C@]5(C)[C@@H](C7=CC(=O)OC7)CC[C@]65O)C4)O[C@@H]3C)O[C@@H]2C)O[C@H](C)[C@H]1O[C@@H]1O[C@H](CO)[C@@H](O)[C@H](O)[C@@H]1O`, the negative logarithm of the IC50 (pIC50) is 7.15. As to `COc1cc2nc(N3CCN(C(=O)C4COc5ccccc5O4)CC3)nc(N)c2cc1OC` (configuration not stated), the IC50 was > 10 µM (inactive).

Turning to `O=c1oc2c(O)c(O)cc3c(=O)oc4c(O)c(O)cc1c4c23`, the IC50 was > 10 µM (inactive). For the molecule `Nc1nc(=S)c2[nH]cnc2[nH]1`, the pIC50 was 6.21. On the same count and under the same terms, the same measure for `Cc1ccc(Nc2nccc(N(C)c3ccc4c(C)n(C)nc4c3)n2)cc1S(N)(=O)=O`: 7.33.

On to `Cn1ccc2cc3c(cc21)CCN3C(=O)Nc1cccnc1`, for which the IC50 is > 10 µM (inactive). Turning to `[O-][n+]1ccccc1SSc1cccc[n+]1[O-]`, the pIC50 is 6.14. Turning to `Oc1ccc2[nH]cc(CCCCN3CC=C(c4ccccc4)CC3)c2c1`, the pIC50 was 5.39. With `CCOC(=O)NC(C)(C)Cc1ccc(Cl)cc1`, the IC50 is > 10 µM (inactive). Consider `Clc1ccc(CSC(Cn2ccnc2)c2ccc(Cl)cc2Cl)cc1` (configuration not stated), for which the pIC50 is 5.67. For the molecule `Cc1cc(C2CCCCC2)n(O)c(=O)c1`, the IC50 is > 10 µM (inactive). Take `CC(C)(C)CC(C)(C)c1ccc(OCCOCC[N+](C)(C)Cc2ccccc2)cc1`: the pIC50 is 5.43. `Oc1ccc(/C=C/c2cc(O)cc(O)c2)cc1`: the IC50 was > 10 µM (inactive). With `Cn1cc(S(C)=O)c(=O)c2ccc(F)cc21` (configuration not stated), the IC50 was > 10 µM (inactive). With `Cc1onc(-c2c(Cl)cccc2Cl)c1C(=O)Cl`, the IC50 was > 10 µM (inactive). For the molecule `O=c1[nH]cc(F)c(=O)[nH]1`, the IC50 was > 10 µM (inactive). As to `CCCCCCCCCCCCCC[N+](C)(C)Cc1ccccc1`, the pIC50 was 5.52. As for `CC1CCC(C(C)C)C(OC(=O)c2ccccc2O)C1` (configuration not stated), the IC50 is > 10 µM (inactive).

Take `CCN(CC)C(=O)/C(C#N)=C/c1cc(O)c(O)c([N+](=O)[O-])c1`: the IC50 was > 10 µM (inactive). Same read-out and setting: then `Nc1c2ccccc2nc2ccccc12`, with > 10 µM (inactive); and `CN[C@@H]1C[C@@H](c2ccc(Cl)c(Cl)c2)c2ccccc21`, with > 10 µM (inactive).

As to `Cc1cc(=O)c2c(O)c3c(O)cc(=O)c4c3c3c(cc(O)c1c23)C(C)(C)C=4O`, the negative-log IC50 (pIC50) was 7.00. As to `CO[C@@H]1[C@@H](OC)[C@H](C)[C@@](O)(CC(=O)O)O[C@H]1[C@H](C)[C@H]1O[C@@]2(CC[C@@](C)([C@H]3CC[C@@](C)([C@@H]4O[C@@H]([C@H]5O[C@](C)(O)[C@H](C)C[C@@H]5C)C[C@@H]4OC4C[C@H](OC)[C@@H](OC)[C@H](C)O4)O3)O2)C[C@H](O)[C@H]1C` (some centres not stated), the pIC50 is 6.60. For `COc1ccc2cc1Oc1ccc(cc1)C[C@H]1c3c(cc4c(c3Oc3cc5c(cc3OC)CCN(C)[C@@H]5C2)OCO4)CCN1C`, the pIC50 is 5.52. Consider `Cc1cc(O)c2c(O)c3c(O)cccc3cc2c1`, for which the IC50 was > 10 µM (inactive). In the case of `O=C(Nc1ccc(Cl)cc1)Nc1ccc(Cl)c(Cl)c1`, the IC50 is > 10 µM (inactive). Consider `O=C(O)CCC(=O)OC[C@@H](NC(=O)C(Cl)Cl)[C@H](O)c1ccc([N+](=O)[O-])cc1`, for which the IC50 is > 10 µM (inactive). For `O=C(CCl)c1ccc(Cl)cc1Cl`, the pIC50 is 5.60. Turning to `Clc1ccc(CCC(Cn2ccnc2)Sc2c(Cl)cccc2Cl)cc1` (configuration not stated), the pIC50 is 5.45.

For the molecule `NCCNc1ccc(NCCN)c2c1C(=O)c1ccncc1C2=O`, the pIC50 is 7.33. On to `O=C(O)C1(C(=O)O)CCC1.[NH2-].[NH2-].[Pt+2]`, for which the IC50 was > 10 µM (inactive). On to `CC[C@@H]([C@H](C)O)n1ncn(-c2ccc(N3CCN(c4ccc(OC[C@@H]5CO[C@@](Cn6cncn6)(c6ccc(F)cc6F)C5)cc4)CC3)cc2)c1=O`, for which the IC50 was 6.46 µM (inactive). Regarding `C1CN(P2(N3CC3)=NP(N3CC3)(N3CC3)=NP(N3CC3)(N3CC3)=N2)CCO1` (configuration not stated), the pIC50 was 5.44.

Take `O=C(OCCO)c1ccccc1O`: the IC50 was > 10 µM (inactive). Turning to `Cc1c(N)cccc1C(F)(F)F`, the IC50 is > 10 µM (inactive). In the case of `Oc1c(I)cc(Cl)c2cccnc12`, the IC50 is > 10 µM (inactive). Regarding `O=C(c1ccc(F)cc1)C1CCN(CCn2c(=O)[nH]c3ccccc3c2=O)CC1`, the IC50 is > 10 µM (inactive). As to `CC[C@H](C)C(=O)O[C@H]1C[C@@H](C)C=C2C=C[C@H](C)[C@H](CC[C@@H]3C[C@@H](O)CC(=O)O3)[C@H]21`, the pIC50 is 5.49.

The record behind these values is PubChem BioAssay AID1117337 (Cheminformatics & Chemogenomics Research Group (CCRG), …, 2015).
